Literature values, collected in patent publication US6506938B1, “Process for the purifying of iopamidol” (Bracco International B.V., priority 1993, dated 2003).
Like-named read-outs stand apart in the source and are kept apart here.

How the values were obtained:
[1] = British patent no. 1,472,050
[2] = Boll. Chim. Farm., 120, 639, (1981)

What does the source list for C[C@H](O)C(=O)Nc1c(I)c(C(=O)NC(CO)CO)c(I)c(C(=O)NC(CO)CO)c1I [Iopamidol, L-5-α-hydroxypropionylamino-2,4,6-triiodo-isophthalic acid bis-(1,3-dihydroxyisopropylamide)]?
solubility in ethanol ([1]; ethanol, room temperature): about 10%; solubility in methanol ([1]; methanol): practically unlimited solubility; solubility in water ([1]; water): dissolves very easily; solubility in benzene ([2]; benzene): practically insoluble; solubility in chloroform ([2]; chloroform): practically insoluble; solubility in diethylether ([2]; diethylether): practically insoluble; solubility in ethanol ([2]; ethanol): practically insoluble; solubility in methanol ([2]; methanol): only slightly soluble; solubility in water ([2]; water): very soluble
